Patent publication US12077503B2, “Substituted cyclic amides and their use as herbicides” (FMC CORPORATION, priority 2015, dated 2024)

How the values were obtained:
Assay type in all cases: in vivo
[1] = tested on: ducksalad (Heteranthera limosa); assay: Test B flooded paddy test; conditions: Flood, 250 g ai/ha; 0 to 100 scale where 0 is no effect and 100 is complete control; 13 to 15 d
Method in brief: (§1)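 2-leaf plants; pots flooded 3 cm over soil; cpd added to paddy water; depth held; greenhouse 13–15 d; visual rating vs controls, 0 = no effect, 100 = complete control.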

rice (Oryra sativa) = assay: Test B flooded paddy test; conditions: Flood, 250 g ai/ha; 0 to 100 scale where 0 is no effect and 100 is complete control; 13 to 15 d
Method in brief: as §1

[2] = tested on: barnyardgrass (Echinochloa crus-galli); assay: Test B flooded paddy test; conditions: Flood, 250 g ai/ha; 0 to 100 scale where 0 is no effect and 100 is complete control; 13 to 15 d
Method in brief: as §1

[3] = tested on: sedge, umbrella (small-flower umbrella sedge, Cyperus difformis); assay: Test B flooded paddy test; conditions: Flood, 250 g ai/ha; 0 to 100 scale where 0 is no effect and 100 is complete control; 13 to 15 d
Method in brief: as §1

[4] = tested on: blackgrass (Alopecurus myosuroides); assay: Test A postemergence; conditions: for Blackgrass plant response rating: 125 g ai/ha, postemergence, visual injury rating on 0 to 100 scale (0 no effect, 100 complete control), approx. 10 d; for Plant response rating, Blackgrass: Postemergence, 500 g ai/ha, 0 to 100 scale where 0 is no effect and 100 is complete control
Method in brief: (§2)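 In a loam soil and sand blend, planted seeds got a preemergence directed soil spray, and young plants at the one- to two-leaf stage, 2–10 cm high, got a postemergence application; ~10 d greenhouse hold; injury rated visually, 0 = none, 100 = complete control.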

[5] = tested on: pigweed (Amaranthus retroflexus); assay: Test A postemergence; conditions: for Pigweed plant response rating: 125 g ai/ha, postemergence, visual injury rating on 0 to 100 scale (0 no effect, 100 complete control), approx. 10 d; for Plant response rating, Pigweed: Postemergence, 500 g ai/ha, 0 to 100 scale where 0 is no effect and 100 is complete control
Method in brief: as §2

[6] = tested on: ragweed (common ragweed, Ambrosia elatior); assay: Test A postemergence; conditions: for Ragweed plant response rating: 125 g ai/ha, postemergence, visual injury rating on 0 to 100 scale (0 no effect, 100 complete control), approx. 10 d; for Plant response rating, Ragweed: Postemergence, 500 g ai/ha, 0 to 100 scale where 0 is no effect and 100 is complete control
Method in brief: as §2

[7] = tested on: wheat (Triticum aestivum); assay: Test A postemergence; conditions: for Wheat plant response rating: 125 g ai/ha, postemergence, visual injury rating on 0 to 100 scale (0 no effect, 100 complete control), approx. 10 d; for Plant response rating, Wheat: Postemergence, 500 g ai/ha, 0 to 100 scale where 0 is no effect and 100 is complete control
Method in brief: as §2

[8] = tested on: giant foxtail (Setaria faberii); assay: Test A postemergence; conditions: for Foxtail, Giant plant response rating: 125 g ai/ha, postemergence, visual injury rating on 0 to 100 scale (0 no effect, 100 complete control), approx. 10 d; for Plant response rating, Foxtail, Giant: Postemergence, 500 g ai/ha, 0 to 100 scale where 0 is no effect and 100 is complete control
Method in brief: as §2

[9] = tested on: Galium (catchweed bedstraw, Galium aparine); assay: Test A postemergence; conditions: for Galium plant response rating: 125 g ai/ha, postemergence, visual injury rating on 0 to 100 scale (0 no effect, 100 complete control), approx. 10 d; for Plant response rating, Galium: Postemergence, 500 g ai/ha, 0 to 100 scale where 0 is no effect and 100 is complete control
Method in brief: as §2

corn (Zea mays) = assay: Test A postemergence; conditions: for Corn plant response rating: 125 g ai/ha, postemergence, visual injury rating on 0 to 100 scale (0 no effect, 100 complete control), approx. 10 d; for Plant response rating, Corn: Postemergence, 500 g ai/ha, 0 to 100 scale where 0 is no effect and 100 is complete control
Method in brief: as §2

[10] = tested on: ryegrass, Italian (Italian ryegrass, Lolium multiflorum); assay: Test A postemergence; conditions: for Ryegrass, Italian plant response rating: 125 g ai/ha, postemergence, visual injury rating on 0 to 100 scale (0 no effect, 100 complete control), approx. 10 d; for Plant response rating, Ryegrass, Italian: Postemergence, 500 g ai/ha, 0 to 100 scale where 0 is no effect and 100 is complete control
Method in brief: as §2

Kochia (Kochia scoparia) [11] = assay: Test A postemergence; conditions: for Kochia plant response rating: 125 g ai/ha, postemergence, visual injury rating on 0 to 100 scale (0 no effect, 100 complete control), approx. 10 d; for Plant response rating, Kochia: Postemergence, 500 g ai/ha, 0 to 100 scale where 0 is no effect and 100 is complete control
Method in brief: as §2

[12] = tested on: barnyardgrass (Echinochloa crus-galli); assay: Test A postemergence; conditions: for Barnyardgrass plant response rating: 125 g ai/ha, postemergence, visual injury rating on 0 to 100 scale (0 no effect, 100 complete control), approx. 10 d; for Plant response rating, Barnyardgrass: Postemergence, 500 g ai/ha, 0 to 100 scale where 0 is no effect and 100 is complete control
Method in brief: as §2

[13] = tested on: pigweed (Amaranthus retroflexus); assay: Test A preemergence; conditions: Preemergence; for Plant response rating, Pigweed: 125 g ai/ha, visual injury after approximately 10 d, 0 to 100 scale where 0 is no effect and 100 is complete control; for Pigweed plant response rating (0 to 100 scale, 0 is no effect, 100 is complete control): 500 g ai/ha, visual injury approx. 10 d
[14] = tested on: ragweed (common ragweed, Ambrosia elatior); assay: Test A preemergence; conditions: Preemergence; for Plant response rating, Ragweed: 125 g ai/ha, visual injury after approximately 10 d, 0 to 100 scale where 0 is no effect and 100 is complete control; for Ragweed plant response rating (0 to 100 scale, 0 is no effect, 100 is complete control): 500 g ai/ha, visual injury approx. 10 d
Method in brief: as §2

[15] = tested on: giant foxtail (Setaria faberii); assay: Test A preemergence; conditions: Preemergence; for Plant response rating, Foxtail, Giant: 125 g ai/ha, visual injury after approximately 10 d, 0 to 100 scale where 0 is no effect and 100 is complete control; for Foxtail, Giant plant response rating (0 to 100 scale, 0 is no effect, 100 is complete control): 500 g ai/ha, visual injury approx. 10 d
Method in brief: as §2

[16] = tested on: ryegrass, Italian (Italian ryegrass, Lolium multiflorum); assay: Test A preemergence; conditions: Preemergence; for Plant response rating, Ryegrass, Italian: 125 g ai/ha, visual injury after approximately 10 d, 0 to 100 scale where 0 is no effect and 100 is complete control; for Ryegrass, Italian plant response rating (0 to 100 scale, 0 is no effect, 100 is complete control): 500 g ai/ha, visual injury approx. 10 d
Method in brief: as §2

Kochia (Kochia scoparia) [17] = assay: Test A preemergence; conditions: Preemergence; for Plant response rating, Kochia: 125 g ai/ha, visual injury after approximately 10 d, 0 to 100 scale where 0 is no effect and 100 is complete control; for Kochia plant response rating (0 to 100 scale, 0 is no effect, 100 is complete control): 500 g ai/ha, visual injury approx. 10 d
Method in brief: as §2

[18] = tested on: barnyardgrass (Echinochloa crus-galli); assay: Test A preemergence; conditions: Preemergence; for Plant response rating, Barnyardgrass: 125 g ai/ha, visual injury after approximately 10 d, 0 to 100 scale where 0 is no effect and 100 is complete control; for Barnyardgrass plant response rating (0 to 100 scale, 0 is no effect, 100 is complete control): 500 g ai/ha, visual injury approx. 10 d
Method in brief: as §2

SMILES	Plant response rating, Ducksalad [1]	Plant response rating, Rice (rice (Oryra sativa))	Plant response rating, Barnyardgrass [2]	Plant response rating, Sedge, Umbrella [3]	Blackgrass plant response rating [4]	Plant response rating, Blackgrass [4]	Pigweed plant response rating [5]	Plant response rating, Pigweed [5]	Ragweed plant response rating [6]	Plant response rating, Ragweed [6]	Wheat plant response rating [7]	Plant response rating, Wheat [7]	Foxtail, Giant plant response rating [8]	Plant response rating, Foxtail, Giant [8]	Galium plant response rating [9]	Plant response rating, Galium [9]	Corn plant response rating (corn (Zea mays))	Plant response rating, Corn (corn (Zea mays))	Ryegrass, Italian plant response rating [10]	Plant response rating, Ryegrass, Italian [10]	also measured
O=C1NCC(c2ccc(C(F)(F)F)c(F)c2)C1C(=O)Nc1cccc(F)c1F (racemic) [Compound 504]	80	0	40	0	40	60	60	70	30	40	20	60	90	90	70	70	70	70	40	40	Kochia plant response rating (Kochia (Kochia scoparia) [11]): 30; Plant response rating, Kochia (Kochia (Kochia scoparia) [11]): 60; Barnyardgrass plant response rating [12]: 80; Plant response rating, Barnyardgrass [12]: 90; Plant response rating, Pigweed [13]: 80; Pigweed plant response rating (0 to 100 scale, 0 is no effect, 100 is complete control) [13]: 100; Plant response rating, Ragweed [14]: 40; Ragweed plant response rating (0 to 100 scale, 0 is no effect, 100 is complete control) [14]: 50; Plant response rating, Foxtail, Giant [15]: 90; Foxtail, Giant plant response rating (0 to 100 scale, 0 is no effect, 100 is complete control) [15]: 90; Plant response rating, Ryegrass, Italian [16]: 40; Ryegrass, Italian plant response rating (0 to 100 scale, 0 is no effect, 100 is complete control) [16]: 70; Plant response rating, Kochia (Kochia (Kochia scoparia) [17]): 80; Kochia plant response rating (0 to 100 scale, 0 is no effect, 100 is complete control) (Kochia (Kochia scoparia) [17]): 80; Plant response rating, Barnyardgrass [18]: 90; Barnyardgrass plant response rating (0 to 100 scale, 0 is no effect, 100 is complete control) [18]: 90
O=C1NCC(c2cccc(F)c2F)C1C(=O)Nc1ccc(F)cc1F (stereo not drawn) [Compound 495]	75	0	35	0	0	20	0	0	0	0	0	20	20	70	0	0	0	30	0	20	Kochia plant response rating (Kochia (Kochia scoparia) [11]): 30; Plant response rating, Kochia (Kochia (Kochia scoparia) [11]): 30; Barnyardgrass plant response rating [12]: 20; Plant response rating, Barnyardgrass [12]: 80; Plant response rating, Pigweed [13]: 0; Pigweed plant response rating (0 to 100 scale, 0 is no effect, 100 is complete control) [13]: 20; Plant response rating, Ragweed [14]: 0; Ragweed plant response rating (0 to 100 scale, 0 is no effect, 100 is complete control) [14]: 0; Plant response rating, Foxtail, Giant [15]: 90; Foxtail, Giant plant response rating (0 to 100 scale, 0 is no effect, 100 is complete control) [15]: 90; Plant response rating, Ryegrass, Italian [16]: 0; Ryegrass, Italian plant response rating (0 to 100 scale, 0 is no effect, 100 is complete control) [16]: 20; Plant response rating, Kochia (Kochia (Kochia scoparia) [17]): 20; Kochia plant response rating (0 to 100 scale, 0 is no effect, 100 is complete control) (Kochia (Kochia scoparia) [17]): 30; Plant response rating, Barnyardgrass [18]: 30; Barnyardgrass plant response rating (0 to 100 scale, 0 is no effect, 100 is complete control) [18]: 90
O=C1NCC(c2cc(F)cc(C(F)(F)F)c2)C1C(=O)Nc1ccc(F)cc1F (stereo not drawn) [Compound 490]	85	30	50	0	20	40	0	20	0	20	30	50	80	80	20	40	80	80	0	30	Kochia plant response rating (Kochia (Kochia scoparia) [11]): 0; Plant response rating, Kochia (Kochia (Kochia scoparia) [11]): 20; Barnyardgrass plant response rating [12]: 80; Plant response rating, Barnyardgrass [12]: 80; Plant response rating, Pigweed [13]: 0; Pigweed plant response rating (0 to 100 scale, 0 is no effect, 100 is complete control) [13]: 0; Plant response rating, Ragweed [14]: 0; Ragweed plant response rating (0 to 100 scale, 0 is no effect, 100 is complete control) [14]: 0; Plant response rating, Foxtail, Giant [15]: 90; Foxtail, Giant plant response rating (0 to 100 scale, 0 is no effect, 100 is complete control) [15]: 90; Plant response rating, Ryegrass, Italian [16]: 20; Ryegrass, Italian plant response rating (0 to 100 scale, 0 is no effect, 100 is complete control) [16]: 50; Plant response rating, Kochia (Kochia (Kochia scoparia) [17]): 0; Kochia plant response rating (0 to 100 scale, 0 is no effect, 100 is complete control) (Kochia (Kochia scoparia) [17]): 20; Plant response rating, Barnyardgrass [18]: 80; Barnyardgrass plant response rating (0 to 100 scale, 0 is no effect, 100 is complete control) [18]: 90
